Assay results reported in patent US6415046B1, “Method and apparatus for the early detection of tissue pathology using wavelet transformation” (priority 1999, dated 2002).
Like-named read-outs stand apart in the source and are kept apart here. Marks after values point to notes of the source that are not given here.

Legend:
[1] = test system: Male Sprague-Dawley SPF rats; details: 10-week rats
Procedure: In Experiment 2 (10-week), cardiac and renal tissues were harvested, rinsed in ice-cold physiologic saline, and then placed in 10% (v/v) formaldehyde solution in aqueous phosphate buffer (pH 7.4) (Mallinckrodt Inc., St. Louis, Mo.). Pancreatic tissue was harvested and fixed in buffered zinc-formaldehyde. Microscopic analysis were performed on H&E stained tissue slices.
Tissues from 10-week rats were analyzed using H&E staining. […] The degree of infiltration was evaluated qualitatively as none, few (1-4 cells per field), or marked infiltration.

[2] = test system: Male Sprague-Dawley SPF rats; details: mean±SEM
Procedure: Two groups of laboratory rats were used to perform two separate experiments (Experiments 1 and 2). Male Sprague-Dawley SPF rats (Charles River Laboratories, Wilmington, Ma.) weighing between 175-200 grams were used for each study. Rats were housed two per cage in a controlled-temperature (20-22° Celsius) room where they were exposed to a 12-hour light/dark cycle. Both groups of animals received food and either water or ethanol ad lib. Body weights were recorded on a weekly basis and fluid consumption was monitored in all groups for the duration of the study. The study was approved by the Louisiana State University Medical Center Institutional Animal Care and Use Committee.
(§1) Rats in the diabetic group were injected with streptozotocin (45 mg/kg) prepared in a 0.02 M sodium citrate solution (pH 4.5) via a tail vein to induce diabetes mellitus. Rats assigned to all other groups were injected with a similar volume of sodium citrate solution. Glycosylated hemoglobin (total) was measured in tail-vein blood in all rats within two days of echocardiographic examination using a commercially available kit (Sigma Chemical Co, St. Louis, Mo.).
(§2) Twenty-five rats were used in this experiment with five animals in each group.
All animals were anesthetized with a solution of ketamine-xylazine (50-mg/kg ketamine, 4-mg/kg xylazine, intraperitoneal) and the thoracic and upper abdominal areas shaved prior to echocardiography. The rats were positioned on a table for M-mode and two-dimensional echocardiograms. Studies were performed with a Toshiba Model 380 Echocardiography instrument (Toshiba America Medical Systems, Tustin, Calif.) using a 10 MHZ transducer calibrated with phantoms prior to use. Lateral resolution less than 0.20 mm within the ROI is achieved at the imaging depths used.

[3] = mean±SEM; for Body weights at the time of echocardiographic examination: Experiment 1; for Body weights: Experiment 2, 10-weeks
Procedure: Two groups of laboratory rats were used to perform two separate experiments (Experiments 1 and 2). Male Sprague-Dawley SPF rats (Charles River Laboratories, Wilmington, Ma.) weighing between 175-200 grams were used for each study. Rats were housed two per cage in a controlled-temperature (20-22° Celsius) room where they were exposed to a 12-hour light/dark cycle. Both groups of animals received food and either water or ethanol ad lib. Body weights were recorded on a weekly basis and fluid consumption was monitored in all groups for the duration of the study.
as §1, §2

[4] = DE4 group (diabetic, 4% ethanol)
[5] = Experiment 1 (5 Wks), diabetic rats, 4% ethanol
[6] = Experiment 1 (5 Wks), non-diabetic rats, 12% ethanol
[7] = Experiment 2 (10 Wks), diabetic rats, 4% ethanol
[8] = Experiment 2 (10 Wks), non-diabetic rats, 4% ethanol
[9] = Experiment 2 (10 Wks), non-diabetic rats, 12% ethanol
[10] = E12 group (non-diabetic, 12% ethanol)

CCO [Ethanol, ethanol]
Rats with clear cells, indicative of glycogen deposition, in the kidney [1, 4]: 60%
Lymphocytic infiltrates in myocardial IVS on histologic examination ([1]; DE group (diabetic, 4% ethanol)): did not show infiltrates
Lymphocytic infiltrates in myocardial IVS on histologic examination ([1]; E4 group, all animals, graded none, few (1-4 cells per field), marked): marked lymphocytic infiltrates
Lymphocytic infiltrates in myocardial IVS on histologic examination ([1]; E12 group, all animals, graded none, few (1-4 cells per field), marked): marked lymphocytic infiltrates
IVSD [2, 5]: 0.120 ± 0.004 cm
LVD [2, 5]: 0.455 ± 0.027 cm
PWD [2, 5]: 0.143 ± 0.005 cm
IVSD [2, 6]: 0.130 ± 0.007 cm
LVD [2, 6]: 0.540 ± 0.027 cm
PWD [2, 6]: 0.150 ± 0.003 cm
IVSD [2, 7]: 0.105 ± 0.005 cm
LVD [2, 7]: 0.618 ± 0.032 cm
PWD [2, 7]: 0.125 ± 0.004^d cm
IVSD [2, 8]: 0.126 ± 0.01^a cm
LVD [2, 8]: 0.533 ± 0.033 cm
PWD [2, 8]: 0.155 ± 0.005^c cm
IVSD [2, 9]: 0.151 ± 0.004^b cm
LVD [2, 9]: 0.593 ± 0.018 cm
PWD [2, 9]: 0.159 ± 0.002^c cm
Body weights at the time of echocardiographic examination [3, 4]: 292±22 grams (g)
Body weights at the time of echocardiographic examination [3, 10]: 301±11 grams (g)
Body weights [3, 4]: 295 ± 16 g
Body weights ([3]; E4 group (non-diabetic, 4% ethanol)): 598 ± 29 g
Body weights [3, 10]: 581 ± 25 g
